The test system of data set [1] is N9. Description: Immunomodulatory activity in mouse N9 microglial cells assessed as reduction in LPS-induced nitrite accumulation incubated for 24 hrs by Griess reagent based analysis. The class given is functional, cell-based. The settings on record: dose 0.1-5 µM. (Griess reagent forms a coloured azo dye with nitrite.)
In data set [2] the test system is Mus musculus. Description: Anti-alzheimer activity against amyloid beta (25 to 35) induced working memory deficit mouse assessed as step-through latency time to enter dark compartment at 1 mg/kg, ip administered for 7 days and measured on day 9 days by passive avoidance test. The note with it: time 9.0 day. In kind it is functional, organism-based.
Data set [3] deals with Mus musculus. Briefly: Neuroprotection against mouse model of Alzheimer's disease at 1 mg/kg. The class given is functional, organism-based.
Data set [4] has as its target T1, Protein deacetylase HDAC6 (Mus musculus) (UniProt Q9Z2V5).
T1 sequence (whole entry): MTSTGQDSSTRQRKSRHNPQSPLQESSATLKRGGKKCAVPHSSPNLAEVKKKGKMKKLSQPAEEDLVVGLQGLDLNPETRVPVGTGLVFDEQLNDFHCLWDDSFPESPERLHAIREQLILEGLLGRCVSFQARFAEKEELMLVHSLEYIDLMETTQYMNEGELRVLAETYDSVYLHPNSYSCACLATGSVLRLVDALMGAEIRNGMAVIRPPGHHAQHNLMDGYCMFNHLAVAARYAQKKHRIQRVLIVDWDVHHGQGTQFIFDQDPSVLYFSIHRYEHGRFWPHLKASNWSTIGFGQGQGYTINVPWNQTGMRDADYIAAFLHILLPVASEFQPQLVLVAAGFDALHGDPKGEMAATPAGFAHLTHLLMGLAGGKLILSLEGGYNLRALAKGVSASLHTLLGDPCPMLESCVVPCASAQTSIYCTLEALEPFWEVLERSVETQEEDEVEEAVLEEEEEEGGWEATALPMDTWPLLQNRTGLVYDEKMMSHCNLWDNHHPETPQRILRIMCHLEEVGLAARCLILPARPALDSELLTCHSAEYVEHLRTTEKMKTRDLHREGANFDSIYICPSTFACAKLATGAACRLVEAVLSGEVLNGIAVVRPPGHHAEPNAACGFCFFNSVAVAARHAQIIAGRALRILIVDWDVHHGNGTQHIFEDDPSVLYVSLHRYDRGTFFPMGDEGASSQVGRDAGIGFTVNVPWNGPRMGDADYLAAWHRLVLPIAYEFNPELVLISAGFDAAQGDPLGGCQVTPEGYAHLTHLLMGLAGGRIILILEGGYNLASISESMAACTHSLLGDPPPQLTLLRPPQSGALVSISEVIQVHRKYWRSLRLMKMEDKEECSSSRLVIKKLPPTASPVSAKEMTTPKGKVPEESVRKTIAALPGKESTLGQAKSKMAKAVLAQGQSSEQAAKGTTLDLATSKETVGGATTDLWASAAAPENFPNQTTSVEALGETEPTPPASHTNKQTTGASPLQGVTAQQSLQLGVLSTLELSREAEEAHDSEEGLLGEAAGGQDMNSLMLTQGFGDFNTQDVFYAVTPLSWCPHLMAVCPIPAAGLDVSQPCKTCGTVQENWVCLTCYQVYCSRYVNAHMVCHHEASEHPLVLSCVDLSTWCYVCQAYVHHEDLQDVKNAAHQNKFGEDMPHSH
Briefly: Inhibition of HDAC6 in mouse HT-22 cells assessed as increase in acetylated tubulin level at 20 to 500 nM after 24 hrs by Western blotting analysis. In kind it is cell-based. The note with it: dose 20-500 nM. Background: A western blot detects proteins with antibodies after separation by electrophoresis.

In data set [5] the test system is N9. Description: Immunomodulatory activity in mouse N9 microglial cells assessed as reduction in LPS-induced IL1beta level incubated for 24 hrs by colorimetric assay. The settings on record: dose 0.1-5 µM. The class given is functional, cell-based.
Data set [6] deals with Mus musculus. Briefly: Anti-alzheimer activity against amyloid beta (25 to 35) induced working memory deficit mouse assessed as step-through latency time to enter dark compartment at 0.1 to 0.3 mg/kg, ip administered for 7 days and measured on day 9 days by passive avoidance test. The class given is functional, organism-based. The note with it: dose 0.1-0.3 mg/kg, time 9.0 day.

Data set [7] is described as follows: Toxicity in mouse model of Alzheimer's disease assessed as drug tolerability at 0.3 to 3 mg/kg, ip measured after 7 days. The class given is organism-based. The note with it: in vivo, 168 h, dose 0.3-3 mg/kg, time 7 day.
Data set [8] has as its system Mus musculus. Description: Anti-alzheimer activity against amyloid beta (25 to 35) induced working memory deficit in mouse assessed as increase in spontaneous alternation performance at 0.3 to 1 mg/kg, ip administered for 7 days and measured on day 8 by Y-maze test. In kind it is functional, organism-based. The note with it: dose 0.3-1 mg/kg, time 8.0 day.
Data set [9] relates to N9. Description: Immunomodulatory activity in mouse N9 microglial cells assessed as reduction in LPS-induced iNOS expression incubated for 24 hrs by Western blot analysis. In kind it is functional, cell-based. The note with it: dose 0.1-5 µM.
Data set [10] deals with Mus musculus. Briefly: Cognitive enhancing effect in mouse model of Alzheimer's disease at 1 mg/kg. In kind it is functional, organism-based.
Data set [11] has as its target T1, Protein deacetylase HDAC6 (Mus musculus). Description: Inhibition of HDAC6 in mouse HT-22 cells assessed as increase in acetylated histone H4 level at 20 to 500 nM after 24 hrs by Western blotting analysis. In kind it is cell-based. The settings on record: dose 20-500 nM.
Data set [12] has the same target. Briefly: Inhibition of HDAC6 in mouse HT-22 cells assessed as increase in acetylated histone H3 level at 20 to 500 nM after 24 hrs by Western blotting analysis. The class given is cell-based. The note with it: dose 20-500 nM.
Data set [13] shares this target. Briefly: Inhibition of HDAC6 in mouse HT-22 cells assessed as increase in acetylated tubulin level at […] after 24 hrs by Western blotting analysis. In kind it is cell-based.

Calls of active or inactive are those of the source. The calls are words filed in the database; no cut-off is given here.

This note sets out measurements from ChEMBL document CHEMBL5036306 (J Med Chem, 2021).

Turning to `COc1ccc2[nH]cc(CCN(Cc3ccc(C(=O)NO)cc3)C(=O)/C=C/c3ccc(O)c(OC)c3)c2c1`, the Activity result in the data set on N9 [1] was “Dose-Dependent Effect”; in the data set on N9 [5], “Dose-Dependent Effect”; in data set [7] it was “Non-Toxic”; with N9 [9], “Dose-Dependent Effect”. Moreover, the result in the data set on Mus musculus [2] was inactive. The result with Mus musculus [3], with Mus musculus [6], with Mus musculus [8] and in the data set on Mus musculus [10] was Active. Besides, in [4], the inhibition entry was “Active”. Also, the inhibition entry in [11] and in data set [12] was “inactive” throughout.
As to `COc1ccc2c(c1)c(CCNC(C)=O)cn2Cc1ccc(C(=O)NO)cc1`, the inhibition result in [13] is “Active”.
